Measured values: PubChem BioAssay AID1996
Converted amounts (≈) assume the structure as drawn.

conditions: buffer; pH 7.4; 200.0 µM

Row | SMILES | solubility kinetic
1 | Fc1cccc(C2CCCCN2Cc2nc(C3CC3)no2)c1 (stereo not given) | 17.1 µg/mL (≈ 56.7 µM)
2 | CCOC(=O)c1cnc2c(F)ccc(F)c2c1Sc1ccccc1 | 5.7 µg/mL (≈ 16.5 µM)
3 | CC12CN3CCN(CC(C3)/C1=N\NC(=O)Nc1cccc(Cl)c1)C2 | > 52.2 µg/mL
4 | CN(C)CCCNC(=O)C(=O)NCC1CCCO1 (stereo not given) | > 38.6 µg/mL
5 | Cc1ccc(CSCC(=O)NCCc2ccccc2)cc1 | 40.9 µg/mL (≈ 137 µM)
6 | Cc1ccccc1C(=O)O/N=C(\N)Cc1cccs1 | > 41.2 µg/mL
7 | O=C(Nc1nc2ccc([N+](=O)[O-])cc2s1)c1ccncc1 | 1.9 µg/mL (≈ 6.33 µM)
8 | CC(=O)c1sc(-c2ccc(Cl)cc2)cc1N | 1.8 µg/mL (≈ 7.15 µM)
9 | COc1ccc(/C=C(\C#N)C(=O)c2cccn2C)cc1 | 5 µg/mL (≈ 18.8 µM)
10 | CS(=O)(=O)N1CCCC(C(=O)Nc2ccccc2)C1 (stereo not given) | 42.2 µg/mL (≈ 149 µM)
11 | COc1ccc(NC(=O)NC2(C(=O)N3CCCC(C)C3)CCCCC2)cc1 (stereo not given) | 36.2 µg/mL (≈ 96.9 µM)
12 | COc1cccc(NC(=O)C(C)N2C(=O)c3ccccc3C2=O)c1 (stereo not given) | 27.3 µg/mL (≈ 84.2 µM)
13 | O=C(CS(=O)(=O)c1ccccc1)Nc1ccccn1 | > 41.4 µg/mL
14 | CC(C)[C@H](NC(=O)NCCC1=CCCCC1)C(=O)O | > 40.3 µg/mL
15 | O=C1NC(=S)N/C1=C\C=C\c1ccccc1 | 1.7 µg/mL (≈ 7.38 µM)
16 | CCOc1ccc(C(=O)NCC(=O)N2CCN(Cc3ccccc3)CC2)cc1 | > 57.2 µg/mL
17 | CSC(=Nc1ccccc1)Nc1ccccc1 | 6.4 µg/mL (≈ 26.4 µM)
18 | O=C(COC(=O)c1cc(Cl)ccc1O)NCC1CCCO1 (stereo not given) | > 47.1 µg/mL
19 | CCN1C(=O)NC(c2ccc(Cl)cc2)C2=C1CCCC2=O (stereo not given) | 44.2 µg/mL (≈ 145 µM)
20 | Cc1cccc(C(=O)N2CCC(c3nc4ccccc4s3)CC2)c1 | > 50.5 µg/mL

Row | SMILES | solubility kinetic
21 | CCN1CCCC1CNC(=O)c1[nH]c2ccc(OC)cc2c1C (stereo not given) | > 47.3 µg/mL
22 | O=C(O)c1cccc([N+](=O)[O-])c1C(=O)Nc1nc2ccccc2s1 | > 51.5 µg/mL
23 | COc1ccc(NC(=O)N2CCCC(c3ccccc3)C2)cc1 (stereo not given) | 27.8 µg/mL (≈ 89.6 µM)
24 | CC1(C)CC(=O)C(C(O)c2ccccc2)C(C)(C)N1 (stereo not given) | 35.2 µg/mL (≈ 135 µM)
25 | CCC(NC(=S)NCc1ccc(F)cc1)c1ccc(C(C)C)cc1 (stereo not given) | < 0.4 µg/mL
26 | CN(C)Cc1nc2ccccc2c(=O)n1CC#N | > 36.3 µg/mL
27 | CCCOC(=O)c1ccc(NC(=O)Cc2cccs2)cc1 | 24 µg/mL (≈ 79.1 µM)
28 | Cc1ccc(N2C(=O)C3CCCN3C2=S)cc1C (stereo not given) | > 39.1 µg/mL
29 | CC(C)C1Cc2[nH]c(=O)c(C#N)cc2CO1 (stereo not given) | > 32.7 µg/mL
30 | Cc1cccc(NC(=O)CNC(=O)c2cccc(-n3cccc3)c2)c1C | 8.6 µg/mL (≈ 24.8 µM)
31 | O=S(=O)(Nc1ccc(N2CCCCC2)cc1)c1ccccc1F | 12 µg/mL (≈ 35.9 µM)
32 | O=C(NCc1ccc(F)cc1)c1cnc(Cl)c(Cl)c1 | 6.9 µg/mL (≈ 23.1 µM)
33 | CCOC(=O)c1cc2c(ccn2C)n1CC(=O)Nc1ccc(F)cc1 | 3.1 µg/mL (≈ 9.03 µM)
34 | Cc1nc2ccsc2c(=O)n1-c1cccc(Cl)c1 | > 41.5 µg/mL
35 | CC1C(=O)C(C)C(c2ccc(Cl)cc2)NC1c1ccc(Cl)cc1.Cl (stereo not given) | < 0.8 µg/mL
36 | COCCC(=O)Nc1ccc2c(c1)CN(C(=O)CCOC)CC2 | > 48.1 µg/mL
37 | CC(=O)c1ccc(CC2SC(N)=NC2=O)cc1 (stereo not given) | > 37.2 µg/mL
38 | COC(=O)c1ccc(NC(=O)c2cccc(NC(=O)c3ccccc3)c2)cc1 | 0.9 µg/mL (≈ 2.4 µM)
39 | CS(=O)(=O)c1ccc(Cl)c(NC(=O)COC(=O)c2ccc(S(=O)(=O)N3CCCC3)cc2)c1 | 10.5 µg/mL (≈ 21 µM)
40 | COc1ccc(OCCC(=O)OCC(=O)Nc2cccc(S(=O)(=O)N3CCCCC3)c2)cc1 | 30.5 µg/mL (≈ 64 µM)

Row | SMILES | solubility kinetic
41 | Cc1ccc(CNC(=O)Cc2noc3ccccc23)cc1 | 2.3 µg/mL (≈ 8.2 µM)
42 | Cc1cc(OC(=O)c2ccccc2C)c([N+](=O)[O-])c(=O)[nH]1 | > 43.2 µg/mL
43 | CCOC(=O)c1cc2sccc2n1CC(=O)C(C)(C)C | < 0.6 µg/mL
44 | N#Cc1ccccc1OCC(=O)OCC(=O)N1CCCC1 | > 43.2 µg/mL
45 | Cc1ccc(CC(=O)OCC(=O)c2ccc[nH]2)cc1C | 10.9 µg/mL (≈ 40.2 µM)
46 | O=C(CCNS(=O)(=O)c1ccccc1)N1CCOCC1 | > 44.8 µg/mL
47 | N#Cc1ccccc1-c1ccccc1C(=O)N1CCCCC1 | > 43.6 µg/mL
48 | O=C(Nc1cccc(Cl)c1)Nc1ccccc1C(=O)O | > 43.6 µg/mL
49 | COc1ccc(CCN2C(=NC(=O)C(C)C)SC3CS(=O)(=O)CC32)cc1 (stereo not given) | 6.6 µg/mL (≈ 16.6 µM)
50 | CCOc1ccc(/C=C(\C#N)C(=O)NC2CC2)c(OCC)c1 | 4.8 µg/mL (≈ 16 µM)
51 | CC1(C)Cc2sc3c(=O)[nH]c(=S)[nH]c3c2CO1 | > 40.3 µg/mL
52 | COCc1cc(C)nc(SCC(=O)Oc2ccc(Cl)cc2)c1C#N | 9.4 µg/mL (≈ 25.9 µM)
53 | Cc1onc(-c2c(F)cccc2Cl)c1C(=O)N1CCSCC1 | > 51.1 µg/mL
54 | Cc1ccc(NC(=O)NCCN2CCCCC2)cc1C | 37.4 µg/mL (≈ 136 µM)
55 | COc1ccc(NC(=O)CCc2nc3ccccc3[nH]2)cc1 | 5.3 µg/mL (≈ 17.9 µM)
56 | Cc1ccc(S(=O)(=O)N(C)C)cc1NC(=O)C1CCCCC1 | > 48.7 µg/mL
57 | Cc1[nH]c2ccccc2c1C(=O)CSC(=S)N1CCOCC1 | 2.4 µg/mL (≈ 7.18 µM)
58 | Cc1ccc(S(=O)(=O)N2CC(=O)NC(=O)C2)cc1 | > 40.2 µg/mL
59 | Cc1cccnc1Oc1ncccc1N | > 30.2 µg/mL
60 | NC(=S)NNc1cccc2cccnc12 | > 32.7 µg/mL
